In patent US4348401A, “N-Phenoxyalkylpiperidine derivatives” (Boehringer Mannheim GmbH, priority 1979, dated 1982):

Test system: bronchospasm
Test: inhibition of antigen-induced bronchospasm (Br Sp), passively sensitized guinea pigs, Konzett and Rossler method as modified by Collier
Format: in vivo, guinea pig
Conditions: 5 minutes before antigen, 3 minutes after antigen, vs control group
Experimental: In animals narcotized with 40 mg. sodium pentobarbital/kg. body weight, a Y cannula is introduced into the trachea and a venous cannula is introduced in the jugular vein. A cannula introduced in the carotid artery leads to a measurement chamber (Statham, P 23 Db), with which the arterial pressure is recorded via a direct-current voltage potential measuring bridge. Using a respiratory pump, rats are given an air volume, depending upon the size of the animal, of 1 to 2 ml. 64 times and guinea pigs of 7 to 15 ml. 72 times per minute. […] Upon the appearance of a bronchospasm, initiated by the intravenous administration of the antigen, in the case of the respiratory volume remaining the same, all of the supplied volume of air can no longer flow into the lungs and part of it flows off through a side arm via a valve. The method developed by the firm Basile differs from the method originally described by Konzett and Rossler in that this air volume is measured indirectly via the rate of flow with the help of a thermoelement. The strength of a bronchospasm can then be recorded as a percentage reduction of the available bronchial volume. The theoretically maximum possible bronchospasm is obtained by closing the respiration tube on the animal so that all of the air supplied flows off through the valve.
Every 30 seconds, the valve is closed for 8 seconds by a relay and the total volume is pumped into the lungs in order again to expand the bronchi and alveoli and thus to make possible a sufficient gas exchange. The percentage decrease of the available bronchial volume (X) is calculated according to the following equation: [formula] wherein a is the amplitude of the recorder in mm. at the commencement of the experiment, b is the height of the amplitude in mm. at a definite point of time and m is the maximum amplitude in mm. after closing the respiration tube on the animal.
The antigen is 2×crystallized ovalbumin. Equal amounts of a solution of the antigen in physiological sodium chloride solution and complete Freund's adjuvant are emulsified and injected intramuscularly in an amount of 2×0.15 ml. to male guinea pigs. The animals are bled and the pooled serum is stored at -20° C.
The compounds according to the present invention are administered intravenously 5 minutes before administration of the antigen.

Structure (SMILES): COC(=O)c1ccccc1OCCCN1CCC(NC(=O)c2ccccc2)CC1 [Example 2a, methyl 2-[3-(4-benzamidopiperidino)-propoxy]-benzoate]
- % inhibition Br Sp (dosage 3.0 mg/kg i.v.): 71%

Structure (SMILES): NC(=O)c1ccccc1OCCCN1CCC(NC(=O)c2ccccc2)CC1 [Example 2b, 2-[3-(4-benzamidopiperidino)-propoxy]-benzamide]
- % inhibition Br Sp (dosage 0.38 mg/kg i.v.): 67%

Structure (SMILES): O=C(NC1CCN(CCCOc2ccccc2C(=O)O)CC1)c1ccccc1 [Example 7, 2-[3-(4-Benzamidopiperidino)-propoxy]-benzoic acid]
- % inhibition Br Sp (dosage 1.5 mg/kg i.v.): 45%

Structure (SMILES): O=C(NC1CCN(CCCOc2ccccc2-c2nnn[nH]2)CC1)c1ccccc1 [Example 9, 5-{2-[3-(4-Benzamidopiperidino)-propoxy]-phenyl}-1H-tetrazole]
- % inhibition Br Sp (dosage 0.1 mg/kg i.v.): 56%

Structure (SMILES): Cc1ccccc1C(=O)NC1CCN(CCCOc2ccccc2-c2nnn[nH]2)CC1 [Example 10g, 5-{2-{3-[4-(2-methylbenzamido)-piperidino]-propoxy}-phenyl}-1H-tetrazole]
- % inhibition Br Sp (dosage 0.75 mg/kg i.v.): 71%

Structure (SMILES): Cn1c(=O)c2[nH]cnc2n(C)c1=O [aminophylline, reference compound]
- % inhibition Br Sp (dosage 24 mg/kg i.v.): 29%
